# Values of other authors in US20230355701A1, “CO[…] COMPOUNDS” (CAAMTECH, INC., priority 2019, published 2023).
# Read-outs that look alike come from different tables or passages of the source.
# Key:
# [1] = mediated through agonist activity at hMOR
# [2] = target: hMOR (Homo sapiens, UniProt P35372); conditions: for functional behaviour at hMOR: BRET functional assay
# [3] = target: human kappa opioid receptor (hKOR) (Homo sapiens, UniProt P41145)
# [4] = target: T1, human delta opioid receptor (hDOR) (Homo sapiens, UniProt P41143)
# [5] = target: T1, human delta opioid receptor (hDOR); remark: listed apart in the source
# [6] = intracerebroventricular administration
# [7] = mice
# [8] = rats
# [9] = dogs, given intraperitoneally or orally
# [10] = given intraperitoneally or orally
# T1 sequence (P41143 whole entry): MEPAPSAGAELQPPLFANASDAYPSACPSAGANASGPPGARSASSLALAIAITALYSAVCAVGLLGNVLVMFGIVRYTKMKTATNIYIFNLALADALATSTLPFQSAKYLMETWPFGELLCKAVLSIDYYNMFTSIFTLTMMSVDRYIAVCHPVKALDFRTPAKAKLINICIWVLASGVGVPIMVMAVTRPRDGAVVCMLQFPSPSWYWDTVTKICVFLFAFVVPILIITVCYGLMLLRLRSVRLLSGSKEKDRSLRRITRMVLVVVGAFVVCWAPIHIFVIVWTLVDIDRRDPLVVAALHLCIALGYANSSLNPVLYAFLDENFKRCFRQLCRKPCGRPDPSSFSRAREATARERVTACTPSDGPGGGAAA
# Sequence of human kappa opioid receptor (hKOR) (P41145 whole entry): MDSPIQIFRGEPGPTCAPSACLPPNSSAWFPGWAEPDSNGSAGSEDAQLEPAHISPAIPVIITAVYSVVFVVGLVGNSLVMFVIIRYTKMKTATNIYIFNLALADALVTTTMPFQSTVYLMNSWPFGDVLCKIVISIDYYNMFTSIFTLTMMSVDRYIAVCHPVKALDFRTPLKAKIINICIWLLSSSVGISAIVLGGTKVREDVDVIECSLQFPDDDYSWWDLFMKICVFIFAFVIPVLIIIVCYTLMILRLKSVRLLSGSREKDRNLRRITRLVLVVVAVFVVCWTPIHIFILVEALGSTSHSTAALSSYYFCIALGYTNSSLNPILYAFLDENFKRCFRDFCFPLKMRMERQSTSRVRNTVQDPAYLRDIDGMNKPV
# Sequence of hMOR (P35372 whole entry): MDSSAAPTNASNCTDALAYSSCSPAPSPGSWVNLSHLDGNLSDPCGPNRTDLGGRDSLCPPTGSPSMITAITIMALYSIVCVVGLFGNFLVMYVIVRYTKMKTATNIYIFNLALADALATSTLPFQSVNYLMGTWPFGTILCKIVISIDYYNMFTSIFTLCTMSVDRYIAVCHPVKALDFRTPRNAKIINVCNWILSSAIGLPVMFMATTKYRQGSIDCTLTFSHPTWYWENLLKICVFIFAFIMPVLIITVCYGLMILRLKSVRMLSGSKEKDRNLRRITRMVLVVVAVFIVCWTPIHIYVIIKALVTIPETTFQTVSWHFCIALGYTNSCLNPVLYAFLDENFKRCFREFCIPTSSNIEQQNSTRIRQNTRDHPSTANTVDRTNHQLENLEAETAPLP
SMILES,functional behaviour at hMOR [2],IC50 [3],functional behaviour at hKOR [3],functional behaviour at hDOR [4],binding at hDOR [5],antagonist activity at hMOR ([2]; hMOR),also measured
"CC[C@@H]1CN2CC[C@@]3(O)C(=Nc4cccc(OC)c43)[C@@H]2C[C@@H]1/C(=C\OC)C(=O)OC [7-OH, 7-hydroxymitragynine]",partial agonists,micromolar range,competitive antagonists,weak antagonist activity,observed,,analgesic effects [1]: exhibits analgesic effects
CC[C@@H]1CN2CCc3c([nH]c4cccc(OC)c34)[C@@H]2C[C@@H]1/C(=C\OC)C(=O)OC [Mitragynine],partial agonists,micromolar range,competitive antagonists,weak antagonist activity,negligible,,"analgesic activity [6]: active analgesic; analgesic activity ([7]; administered subcutaneously): inactive; analgesic potency [7, 10]: equivalent to codeine; analgesic activity ([8]; administered subcutaneously): inactive; analgesic potency [8, 10]: equivalent to codeine; analgesic potency [9]: equivalent to codeine"
CCC1CN2CCc3c([nH]c4cccc(OC)c34)[C@@H]2C[C@@H]1/C(=C\OC)C(=O)OC (stereo partly drawn) [speciogynine],,,,,,competitive antagonist activity,
C=C[C@H]1CN2CCc3c([nH]c4cccc(OC)c34)[C@@H]2C[C@@H]1/C(=C\OC)C(=O)OC [paynantheine],,,,,,competitive antagonist activity,IC50 ([2]; hMOR): micromolar range
CC[C@@H]1CN2CCc3c([nH]c4cccc(OC)c34)[C@H]2C[C@@H]1/C(=C\OC)C(=O)OC [speciociliatine],,,,,,competitive antagonist activity,
